Experimental data from patent US20200056220A1, “GENERATION OF DATA FOR USE WITH ANTIMICROBIALS” (GeneFluidics, Inc., priority 2018, published 2020).
Where two headings read alike, the source gives them in different places.

Test system: E. coli
Details: for average current signal of the four sensors, base susceptibility test: 0 minutes susceptibility culture time, sample diluted to 5×10^5 CFU/mL, −250 mV; for average current signal of the four sensors, base susceptibility test / current of the 60 minute test sample: 0.4 μg antibiotic in 100 μL Mueller-Hinton broth
Method: In an antimicrobial susceptibility testing phase, a local antibiogram can be used to identify antibiotics for treating the pathogen identified in Example 1. […] Susceptibility cultures can be started. […] A second susceptibility culture including imipenem can be generated by diluting a portion of the raw sample to 5×10^5 CFU/mL and distributing the result into a vial with a 0.4 μg of a lyophilized version of the imipenem and 100 μL of culture media (Mueller-Hinton broth).
The imipenem susceptibility test sample can be used to generate an imipenem test sample shortly after the imipenem susceptibility culture was started. The Proteus automated system can begin to prepare a test sample from the imipenem susceptibility test sample by transferring 30 μL of the imipenem susceptibility test sample to a microcentrifuge vial in the machine. Then, the Proteus automated system can add 12 μL of 1M NaOH to the 30 μL sample. This sample can be incubated at room temperature for 2 minutes. The Proteus system can then add 8 μL of 1M HCl. Ten microliters of the result can be placed on each of 4 sensors of the 16 available on the GeneFluidics, Inc. 16X EC chip. This chip can be incubated in the Proteus machine for 11 minutes at 43° C. After completion of this incubation, the chip can be washed and dried by Proteus. Ten microliters of 0.5 U/mL anti-fluorescein horseradish peroxidase (HRP) Fab fragments (Roche; diluted in 1.0% casein in 1 M phosphate-buffered saline, pH 7.4) can be injected into the sensor chambers and incubated for 2 minutes at 25° C. The final reagent addition can be 40 μL of 3,3′,5,5′-tetramethylbenzidine (TMB)-H2O2 solution (K-Blue Low Activity TMB Substrate; Neogen, Lexington Ky.) and incubated for 30 seconds to provide the imipenem test sample.
Then, the Proteus automated system can add 12 μL of 1M NaOH to the 30 μL sample. This sample can be incubated at room temperature for 2 minutes. The Proteus system can then add 8 μL of 1M HCl. Ten microliters of the result can be placed on each of 4 sensors of the 16 available on the GeneFluidics, Inc. 16X EC chip. This chip can be incubated in the Proteus machine for 11 minutes at 43° C. After completion of this incubation, the chip can be washed and dried by Proteus. Ten microliters of 0.5 U/mL anti-fluorescein horseradish peroxidase (HRP) Fab fragments (Roche; diluted in 1.0% casein in 1 M phosphate-buffered saline, pH 7.4) can be injected into the sensor chambers and incubated for 2 minutes at 25° C.
The test samples were tested for concentration using a test that served as the base susceptibility test or the zero susceptibility culture time test. For instance, a Helios potentiostat from GeneFluidics, Inc. was connected to the electrodes of the sensor chips and a potential of −250 mV was applied across the electrodes for one minute. During this time, the current generated by the electrochemical reaction was measured by the potentiostat. The average current measured in the final 10 seconds of the potentiostat reading constituted the final result of the assay.
The process that was used to prepare the test samples for the base susceptibility tests was to be used to generate test samples from each of the susceptibility cultures at 60 minutes, and 90 minutes. Each of the test samples were tested as described above.

[1] = 60 minutes susceptibility culture time

Compound	average current signal of the four sensors, base susceptibility test	reported result (resistant / susceptible to the concentration of antimicrobial in the culture) (0.4 μg antibiotic in 100 μL culture media, final report when culture was stopped)	increase over the current level from base susceptibility test [1]	current of the 60 minute test sample [1]	increase over the current level from base susceptibility test (90 minutes susceptibility culture time)
O=C(O)c1cn(C2CC2)c2cc(N3CCNCC3)c(F)cc2c1=O [ciprofloxacin]	30 nA	susceptible	0%	30 nA	0%
C[C@@H](O)[C@H]1C(=O)N2C(C(=O)O)=C(SCCN=CN)C[C@H]12 [imipenem]	30 nA		500%	180 nA	
